Entries after “also recorded” stand apart in the source; their conditions may differ. Where two headings read alike, the source gives them in different places.
What was measured:
MCA205 sarcoma = assay: Tumor growth of established MCA205 sarcoma under anti-CTLA4 (9D9) therapy, with antibiotics, gene-deficient hosts, co-administered mAbs or oral bacteria; settings: for Effect of antibiotic regimen on the antitumor effects of 9D9 Ab against MCA205 sarcomas: SPF mice, antibiotics in drinking water
Protocol: Mice were subcutaneously injected into the right flank with 1×10^6 MCA205-0VA or MC38, or with 0.2×10^6 CT26 tumor cell lines. When tumors reached a size of 25 to 40 mm^2 (day 0), mice were injected intraperitoneally (i.p) with 100 μg of anti-CTLA-4 mAb (clone 9D9) or isotype control (clone MPC11). Mice were injected 5 times at 3-day intervals with 9D9, and tumor size was routinely monitored by means of a caliper. In order to evaluate the synergistic effect of vancomycin and anti-CTLA4, a prophylactic setting was established. […] In experiments using anti-IL-12p40 mAb (clone C17.8, 500 μg per mouse) or anti-Ly6G mAb (clone 1A8, 200 μg per mouse), mAbs (or their isotype controls, clone 2A3 in both cases) were injected i.p. every 2 days starting from day 0 until the final anti-CTLA-4 injection. […] All mAbs for in vivo use were obtained from BioXcell (West Lebanon, N.H., USA), using the recommended isotype control mAbs. The inhibitor of iNOS, NG-monomethyl-L-arginine (L-NMMA; Sigma), was administered in PBS daily to mice i.p. at a dose of 2 mg per mouse from the start of anti-CTLA4 treatment.
Mice were treated with antibiotics 2-3 weeks before tumor implantation and continued on antibiotics until the end of the experiment. A mix of ampicillin (1 mg/ml), streptomycin (5 mg/ml), and colistin (1 mg/ml) (Sigma-Aldrich), or vancomycin alone (0.25 mg/ml), or imipenem alone (0.25 mg/ml), or colistin alone (2.103 U/ml) were added in sterile drinking water. Solutions and bottles were changed 2-3 times a week, or daily for experiments with imipenem. Antibiotic activity was confirmed by macroscopic changes observed at the level of caecum (dilatation) and by cultivating the fecal pellets resuspended in BHI+15% glycerol at 0.1 g/ml on blood agar plates for 48 h at 37° C. with 5% CO2 in aerobic or anaerobic conditions.
For inoculation of GF mice or mice treated with broad-spectrum antibiotics, colonization was performed the day following the first anti-CTLA4 injection by oral gavage with 100 μl of suspension containing 1×10^9 bacteria. Efficient colonization was checked by culture of feces 48 h post oral gavage. Bacteroides fragilis, Bacteroides thetaiotaomicron, Bacteroides distasonis, Bacteroides uniformis, Lactobacillus plantarum and Enterococcus hirae were grown on COS agar plates (Biomerieux) for 48 h at 37° C. with 5% CO2 in anaerobic conditions. E. coli and Burkholderia cepacia were grown on COS agar plates for 24 h at 37° C. with 5% CO2 in aerobic conditions. Bacteria were harvested from the agar plates, suspended in sterile PBS, centrifuged and washed once with PBS, then resuspended in sterile PBS at an optical density (600 nm) of 1, which corresponds approximately to 1×10^9 colony-forming units (CFU)/ml. In cases where more than one bacteria was administered, an equal volume of each bacteria suspension was mixed to give a suspension of equal proportion of each type of bacteria, to a total 1×10^9 bacteria/ml. For bacteria reconstitution experiments using mice previously treated with antibiotics, antibiotics treatment was stopped after 2-3 weeks at the first anti-CTLA4 injection, and mice were orally gavaged with 1×10^9 CFU the following day. B. distasonis, B. uniformis, E. hirae, and E. coli isolates used in the experiments were originally isolated from feces or mesenteric lymph nodes of SPF mice treated with anti-CTLA4 and identified as described above. […] LPS-EK and LTA-SA (Invivogen) were administrated by oral gavage, at a dose of 500 μg per mouse.

[1] = system: bacterial families and orders in feces; assay: 454 pyrosequencing of 16S rRNA gene amplicons of feces from tumor bearers
Protocol: Fecal samples used in this study were collected before or after one injection of anti-CTLA4 (or isotype control) from mice under vancomycin regimen or water, and were kept at −80° C. until further analysis. Library preparation and sequencing were conducted at GATC Biotech AG (Konstanz, Germany).

[2] = system: small intestine and colon; assay: Histology and histopathological scoring of gut tissue; assay type: in vivo, mice; settings: vancomycin-treated tumor bearers
Protocol: The whole small intestine (duodenum, jejunum and ileum) and the colon were removed, cleaned from feces and fixed in 4% PFA for 1 h. Rehydratation of the tissue was performed in 15% sucrose for 1 h and in 30% sucrose overnight. Small intestines or colons were cut longitudinally, with the resulting ribbons rolled, then embedded in optimum cutting temperature (OCT) compound (Sakura), snap frozen, and longitudinal 6 μm sections were prepared. For histological analysis, longitudinal sections were counterstained with hematoxilin and eosin. For histological quantitative analysis, inflammatory foci, appearance of the submucosa, length of villi, and the thickness of lamina propria were scored for each section by a pathologist.

[3] = system: gut microbiome of metastatic melanoma patients; assay: Pyrosequencing of 16S rRNA gene amplicons of patients' feces and clustering into enterotypes A, B, C; assay type: in vivo, human
Protocol: (§1) All clinical studies were conducted after informed consent of the patients, following the guidelines of the Declaration of Helsinki. Peripheral blood mononuclear cells (PBMC) were provided by Gustave Roussy (Villejuif, France) and by the Department of Radiation Oncology (New York University, New York, N.Y., USA). Patients were included in the following protocols: LUDWIG: MAGE3 protein—based vaccines (25), Meladex vaccine Phase I trial (26), Mel-Ipi-Rx, NCT01557114 (European Union Drug Regulating Authorities clinical trial EudraCT 2010-020317-93) and a pilot study approved by the Kremlin Bicetre Hospital Ethics Committee (n° SC12-018; ID RCB: 2012-A01496-37). Ipilimumab/radiotherapy abscopal effect trials in MM and NSCLC at NYU (Study code: NCT01689974, Study code: NCT0222173). MM patients at baseline were investigated prior to vaccine injections in the Ludwig and Meladex protocols. For memory T cell responses, blood samples were drawn from patients before and after 3 or 4 cycles of ipilimumab. Pyrosequencing analyses of 16S rRNA of gene amplicons in patients feces pre- and post-injections of ipilimumab (V0, V1, V2) were performed according to n° SC12-018; ID RCB: 2012-A01496-37 pilot study endpoints by GATC Biotech AG (Konstanz, Germany).
GOLD: Prospective immunomonitoring study of patients with metastatic melanoma receiving four injections of Ipilimumab every three weeks. In addition to peripheral blood sampling for memory T cell responses assessment, feces were collected before each Ipilimumab injection. Feces samples were frozen at −80° C. and sent for 16RNA pyrosequencing analysis at GATC Biotech AG (Konstanz, Germany).

CD4+CD45RO+ T cells = assay: Recall of human CD4+ T cell responses directed against commensals (IFNγ, IL-10); assay type: cell-based
Protocol: as §1
Assessing CD4^+ T cell memory responses. Murine systems. Bone marrow-derived dendritic cells (BM-DCs) were generated from femurs and tibiae of C57BL/6 mice, cultured for 7 days in Iscove's medium (Sigma-Aldrich) with J558 supernatant (final GM-CSF concentration of 40 ng/ml), 10% FCS, 100 IU/ml penicillin/streptomycin, 2 mM L-glutamine, 50 μM 2-mercaptoethanol (Sigma-Aldrich) and split every 3-4 days. At day 7, BM-DCs were infected with the isolated bacterial strains at multiplicity of infection (MOI) of 10 or 50, for 1 h at 37° C. in complete Iscove's medium without antibiotics, onto specific low binding 6 wells plates (Sigma). Cells were then washed with PBS and incubated in complete Iscove's medium supplemented with gentamicin (50 μg/ml) to kill extracellular bacteria. For Burkholderia cepacia, the antibiotic meropenem (2 μg/mL, Astra Zeneca) was required. After 24 h, BM-DCs were cultured together with CD4^+ T cells purified from the spleens of mice that had received 7 days treatment of anti-CTLA4 mAb (i.e 3 anti-CTLA4 mAb injections, as detailed above) in complete RPMI medium. CD4^+ T cells were isolated by depletion of non CD4^+ T cells using a cocktail of biotin-conjugated antibodies against CD8a, CD11b, CD11c, CD19, CD45R (B220), CD49b (DX5), CD105, Anti-MHC-class II, Ter-119 and TCRγ/δ as primary labeling reagent. The cells were then magnetically labeled with Anti-Biotin MicroBeads (Miltenyi Biotec, France). […]

metastatic melanoma = settings: cited from earlier work; for Durable disease control: after more than 7 years of follow-up, MM

Compound: CNC(=N)NCCC[C@H](N)C(=O)O [L-NMMA, NG-monomethyl-L-arginine]
- 9D9 mAb-induced tumoricidal activity upon neutralization of nitric oxide (MCA205 sarcoma; 2 mg per mouse daily i.p.): failed to affect; also recorded: did not alter the antitumor effects

Compound: CN[C@H](CC(C)C)C(=O)N[C@H]1C(=O)N[C@@H](CC(N)=O)C(=O)N[C@H]2C(=O)N[C@H]3C(=O)N[C@H](C(=O)N[C@H](C(=O)O)c4cc(O)cc(O)c4-c4cc3ccc4O)[C@H](O)c3ccc(c(Cl)c3)Oc3cc2cc(c3O[C@@H]2O[C@H](CO)[C@@H](O)[C@H](O)[C@H]2O[C@H]2C[C@](C)(N)[C@H](O)[C@H](C)O2)Oc2ccc(cc2Cl)[C@H]1O [Vancomycin, vancomycin]
- Depletion of Bacteroidales and Burkholderiales provoked by CTLA4 blockade ([1]; vancomycin conditioning): prevented the depletion; also recorded: prevented the loss
- Representation of Bacteroidales (and Enterobacteriales) at the expense of Clostridiales ([1]; vancomycin in drinking water): overrepresentation
- Effect of antibiotic regimen on the antitumor effects of 9D9 Ab against MCA205 sarcomas (MCA205 sarcoma): boosted the antitumor effects; also recorded: augments the tumoricidal effects
- Effect of antibiotic regimen on the antitumor effects of 9D9 Ab against MCA205 sarcomas (MCA205 sarcoma; listed as vancomycin): ameliorated the tumor growth reduction
- Histopathological score of colonic mucosae under anti-CTLA4 [2]: worsened the histopathological score

Compound: Ipilimumab
- Proportion of MM patients falling into cluster C during therapy ([3]; from 26 before therapy): 39%
- Proportion of MM patients belonging to cluster B during therapy ([3]; from 58 before therapy): 39%
- Stools of a B pattern that turned into the C favorable enterotype ([3]; paired analysis of feces in 12 cases, 2 out of 7): 29%
- Decreased commensal-specific Th1 immunity of cancer patients (CD4+CD45RO+ T cells; at least in some cases): restored
- IL-10 production by T cells responding to Bf, B. thetaiotaomicron and to some extent Burkholderia cepacia (CD4+CD45RO+ T cells; melanoma patients, after at least 2 injections): inhibited
- IFNγ secretion by T cells responding to Bf and B. thetaiotaomicron (CD4+CD45RO+ T cells; melanoma patients, after at least 2 injections, not E. coli, E. faecalis or irrelevant bacteria): significantly increased
- B. thetaiotaomicron-specific Tr1 immune responses (CD4+CD45RO+ T cells; paired analyses on 5-12 patients): decrease
- Durable disease control (metastatic melanoma): about 20%
- Durable disease control (metastatic melanoma; listed as ipilimumab): approximately 20%
- Immune-related adverse events of grade III-IV (metastatic melanoma; human, in vivo, iv): 20%
- Life threatening immune-related adverse events (metastatic melanoma; human, in vivo): < 5%

Compound: colistin
- Effect of antibiotic regimen on the antitumor effects of 9D9 Ab against MCA205 sarcomas (MCA205 sarcoma): compromised the antitumor effects

Compound: lipoteichoic acid
- Restoration of 9D9 mAb-induced antitumor effects lost in ACS-treated mice (MCA205 sarcoma; oral administration, 500 μg per mouse): failed to restore

— patent US20190282632A1, “METHODS AND PRODUCTS FOR MODULATING MICROBIOTA COMPOSITION FOR IMPROVING THE EFFICACY OF A CANCER TREATMENT WITH AN IMMUNE CHECKPOINT BLOCKER” (INSTITUT GUSTAVE ROUSSY, priority 2014, published 2019)
